Laboratory results published in paper PMC5218480 (PLoS ONE, 2017).

System: MV-4-11 cells
Experiment: Gene expression microarray analysis (Affymetrix PrimeView) and GSEA
Type: cell-based, human
Parameters: RFU PODN (11730768_x_at) / Fold change /veh PODN (11730768_x_at) / RFU LINC00158 (11744669_a_at) / Fold change /veh LINC00158 (11744669_a_at) / RFU DUSP10 (11751237_a_at) / Fold change /veh DUSP10 (11751237_a_at) / RFU ID3 (11757404_x_at) / Fold change /veh ID3 (11757404_x_at) / RFU PLEKHG5 (11737974_s_at) / Fold change /veh PLEKHG5 (11737974_s_at) / RFU LRRC4B (11730491_at) / Fold change /veh LRRC4B (11730491_at) / RFU GIMAP4 (11747438_a_at) / Fold change /veh GIMAP4 (11747438_a_at) / RFU KRT8 (11758183_x_at) / Fold change /veh KRT8 (11758183_x_at) / RFU CNN1 (11734310_a_at) / Fold change /veh CNN1 (11734310_a_at) / RFU VPS37D (11726825_at) / Fold change /veh VPS37D (11726825_at) / RFU C10orf10 (11716522_x_at) / Fold change /veh C10orf10 (11716522_x_at) / RFU KIR2DL2 /// KIR2DL4 /// KIR2DL5A /// KIR2DL5B /// KIR2DS1 /// KIR2DS2 /// KIR2DS3 /// KIR2DS4 /// KIR3DL3 /// KIR3DL3 /// KIR3DS1 (11738374_at) / Fold change /veh KIR2DL2 /// KIR2DL4 /// KIR2DL5A /// KIR2DL5B /// KIR2DS1 /// KIR2DS2 /// KIR2DS3 /// KIR2DS4 /// KIR3DL3 /// KIR3DL3 /// KIR3DS1 (11738374_at) / RFU C1QL1 (11718748_at) / Fold change /veh C1QL1 (11718748_at) / RFU TMPRSS4 (11747572_a_at) / Fold change /veh TMPRSS4 (11747572_a_at) / RFU HAMP (11756126_x_at) / Fold change /veh HAMP (11756126_x_at) / RFU RNFT2 (11725882_a_at) / Fold change /veh RNFT2 (11725882_a_at) / RFU NR4A2 (11747474_a_at) / Fold change /veh NR4A2 (11747474_a_at) / RFU ABCC12 (11746883_a_at) / Fold change /veh ABCC12 (11746883_a_at) / RFU TMEM136 (11760407_x_at) / Fold change /veh TMEM136 (11760407_x_at) / RFU CLDN22 /// WWC2 (11732394_at) / Fold change /veh CLDN22 /// WWC2 (11732394_at) / RFU HLA-DPB1 (11760878_x_at) / Fold change /veh HLA-DPB1 (11760878_x_at) / RFU SPINT1 (11716480_a_at) / Fold change /veh SPINT1 (11716480_a_at) / RFU GAP43 (11754022_s_at) / Fold change /veh GAP43 (11754022_s_at) / RFU A4GNT (11735810_at) / Fold change /veh A4GNT (11735810_at) / RFU PRB3 (11715151_x_at) / Fold change /veh PRB3 (11715151_x_at) / RFU TUBB4B (11761932_at) / Fold change /veh TUBB4B (11761932_at) / RFU CAPN14 (11732068_a_at) / Fold change /veh CAPN14 (11732068_a_at) / RFU TMCC2 (11721928_a_at) / Fold change /veh TMCC2 (11721928_a_at) / RFU IRGQ (11745062_a_at) / Fold change /veh IRGQ (11745062_a_at) / RFU FAM174B (11720279_a_at) / Fold change /veh FAM174B (11720279_a_at) / RFU TMPRSS4 (11748680_a_at) / Fold change /veh TMPRSS4 (11748680_a_at) / RFU FAM212B (11763350_a_at) / Fold change /veh FAM212B (11763350_a_at) / RFU PLEKHG5 (11743358_a_at) / Fold change /veh PLEKHG5 (11743358_a_at) / RFU ZSCAN30 (11745921_a_at) / Fold change /veh ZSCAN30 (11745921_a_at) / RFU CMKLR1 (11741424_a_at) / Fold change /veh CMKLR1 (11741424_a_at) / RFU LOC101060620 /// MAPK8IP1 (11723275_at) / Fold change /veh LOC101060620 /// MAPK8IP1 (11723275_at) / RFU SPTSSB (11747773_x_at) / Fold change /veh SPTSSB (11747773_x_at) / RFU PRSS12 (11739890_at) / Fold change /veh PRSS12 (11739890_at) / RFU BIN1 (11741810_x_at) / Fold change /veh BIN1 (11741810_x_at) / RFU WNT11 (11732464_a_at) / Fold change /veh WNT11 (11732464_a_at) / RFU C10orf10 (11716521_a_at) / Fold change /veh C10orf10 (11716521_a_at) / RFU C5orf56 (11738089_at) / Fold change /veh C5orf56 (11738089_at) / RFU CYB561 (11721691_x_at) / Fold change /veh CYB561 (11721691_x_at) / RFU ANKRD19P (11752326_a_at) / Fold change /veh ANKRD19P (11752326_a_at) / RFU OR2T12 /// OR2T33 /// OR2T8 (11738714_s_at) / Fold change /veh OR2T12 /// OR2T33 /// OR2T8 (11738714_s_at) / RFU VCAN (11748164_a_at) / Fold change /veh VCAN (11748164_a_at) / RFU JSRP1 (11732532_at) / Fold change /veh JSRP1 (11732532_at) / RFU KRTAP10-11 (11738290_x_at) / Fold change /veh KRTAP10-11 (11738290_x_at) / RFU MYO3A (11730013_a_at) / Fold change /veh MYO3A (11730013_a_at) / RFU EBF3 (11725865_a_at) / Fold change /veh EBF3 (11725865_a_at) / RFU CAMK2N1 (11719241_x_at) / Fold change /veh CAMK2N1 (11719241_x_at) / RFU C5orf56 (11738088_a_at) / Fold change /veh C5orf56 (11738088_a_at) / RFU OLFML3 (11715873_a_at) / Fold change /veh OLFML3 (11715873_a_at) / RFU LOC100653217 /// NTM (11731650_a_at) / Fold change /veh LOC100653217 /// NTM (11731650_a_at) / RFU MAPK11 (11762145_a_at) / Fold change /veh MAPK11 (11762145_a_at) / RFU FIZ1 (11724087_x_at) / Fold change /veh FIZ1 (11724087_x_at) / RFU OASL (11726364_x_at) / Fold change /veh OASL (11726364_x_at) / RFU SOX15 (11748057_x_at) / Fold change /veh SOX15 (11748057_x_at) / RFU CD79A (11719716_a_at) / Fold change /veh CD79A (11719716_a_at) / RFU HIST1H1D (11736915_at) / Fold change /veh HIST1H1D (11736915_at) / RFU CASKIN2 (11723855_a_at) / Fold change /veh CASKIN2 (11723855_a_at) / RFU LOC730098 (11760151_x_at) / Fold change /veh LOC730098 (11760151_x_at) / RFU OR4N2 (11742367_at) / Fold change /veh OR4N2 (11742367_at) / RFU PRRT2 (11749266_a_at) / Fold change /veh PRRT2 (11749266_a_at) / RFU SNX32 (11753110_a_at) / Fold change /veh SNX32 (11753110_a_at) / RFU CDHR5 (11726645_a_at) / Fold change /veh CDHR5 (11726645_a_at) / RFU RCAN1 (11760418_a_at) / Fold change /veh RCAN1 (11760418_a_at) / RFU FAM167A (11723789_a_at) / Fold change /veh FAM167A (11723789_a_at) / RFU FAM26E (11764081_at) / Fold change /veh FAM26E (11764081_at) / RFU ISYNA1 (11749810_s_at) / Fold change /veh ISYNA1 (11749810_s_at) / RFU ACY1 (11761880_at) / Fold change /veh ACY1 (11761880_at) / RFU 11764098_at / Fold change /veh 11764098_at / RFU SAMD14 (11745864_x_at) / Fold change /veh SAMD14 (11745864_x_at) / RFU NPB (11741838_a_at) / Fold change /veh NPB (11741838_a_at) / RFU TMPRSS6 (11731388_a_at) / Fold change /veh TMPRSS6 (11731388_a_at) / RFU KRTAP10-2 (11738614_at) / Fold change /veh KRTAP10-2 (11738614_at) / RFU ARHGAP8 /// PRR5-ARHGAP8 (11727945_x_at) / Fold change /veh ARHGAP8 /// PRR5-ARHGAP8 (11727945_x_at) / RFU KRTAP5-7 /// NADSYN1 (11734609_at) / Fold change /veh KRTAP5-7 /// NADSYN1 (11734609_at) / RFU RASL12 (11751679_a_at) / Fold change /veh RASL12 (11751679_a_at) / RFU CDKN2B (11736163_a_at) / Fold change /veh CDKN2B (11736163_a_at) / RFU PRF1 (11729649_at) / Fold change /veh PRF1 (11729649_at) / RFU, ZNF638 /// ZNF638-IT1 / Fold change vs veh, ZNF638 /// ZNF638-IT1 / RFU, PANK3 / Fold change vs veh, PANK3 / RFU, SH3YL1 / Fold change vs veh, SH3YL1 / RFU, ZEB2 / Fold change vs veh, ZEB2 / RFU, NRIP1 / Fold change vs veh, NRIP1 / RFU, PTTG1IP / Fold change vs veh, PTTG1IP / RFU, CAPN2 / Fold change vs veh, CAPN2 / RFU, MED14 / Fold change vs veh, MED14 / RFU, SNORA58 / Fold change vs veh, SNORA58 / RFU, C1orf63 / Fold change vs veh, C1orf63 / RFU, LRRFIP1 / Fold change vs veh, LRRFIP1 / RFU, NDUFAF7 / Fold change vs veh, NDUFAF7 / RFU, SLC12A2 / Fold change vs veh, SLC12A2 / RFU, IBTK / Fold change vs veh, IBTK / RFU, ESF1 / Fold change vs veh, ESF1 / Fold change vs veh, TMEM50B / RFU, TAOK1 / Fold change vs veh, TAOK1 / RFU, ACBD3 / Fold change vs veh, ACBD3 / RFU, TMA16 / Fold change vs veh, TMA16 / RFU, RWDD3 / Fold change vs veh, RWDD3 / RFU, BCAT1 / Fold change vs veh, BCAT1 / RFU, EDEM3 / Fold change vs veh, EDEM3 / RFU, TMEM33 / Fold change vs veh, TMEM33 / RFU, WDR75 / Fold change vs veh, WDR75 / RFU, AHCTF1 / Fold change vs veh, AHCTF1 / RFU, TFRC / Fold change vs veh, TFRC / RFU, ZDHHC17 / Fold change vs veh, ZDHHC17 / RFU, NOM1 / Fold change vs veh, NOM1 / RFU, ARL8B / Fold change vs veh, ARL8B / RFU, ZBTB11 / Fold change vs veh, ZBTB11 / RFU, TAMM41 / Fold change vs veh, TAMM41 / RFU, KIAA1704 /// LOC100996395 / Fold change vs veh, KIAA1704 /// LOC100996395 / RFU, ING1 / Fold change vs veh, ING1 / RFU, TRMT61B / Fold change vs veh, TRMT61B / RFU, FUBP3 / Fold change vs veh, FUBP3 / RFU, TP53 / Fold change vs veh, TP53 / RFU, TNKS2 / Fold change vs veh, TNKS2 / RFU, ZFP14 / Fold change vs veh, ZFP14 / RFU, ACTR2 / Fold change vs veh, ACTR2 / RFU, PPP3R1 / Fold change vs veh, PPP3R1 / RFU, PIK3R1 / Fold change vs veh, PIK3R1 / RFU, HNRNPA1 / Fold change vs veh, HNRNPA1 / RFU, RNF170 / Fold change vs veh, RNF170 / RFU, ZNF28 / Fold change vs veh, ZNF28 / RFU, RNGTT / Fold change vs veh, RNGTT / RFU, OGT / Fold change vs veh, OGT / RFU, BRD1 / Fold change vs veh, BRD1 / RFU, MARS / Fold change vs veh, MARS / RFU, ZNF655 / Fold change vs veh, ZNF655 / RFU, FAHD1 / Fold change vs veh, FAHD1 / RFU, BDP1 / Fold change vs veh, BDP1 / RFU, LRRCC1 / Fold change vs veh, LRRCC1 / RFU, ARID1A / Fold change vs veh, ARID1A / RFU, ZNF146 / Fold change vs veh, ZNF146 / RFU, ZNF330 / Fold change vs veh, ZNF330 / RFU, GPN3 / Fold change vs veh, GPN3 / RFU, C9orf123 / Fold change vs veh, C9orf123 / RFU, N4BP2L2 / Fold change vs veh, N4BP2L2 / RFU, ARFIP1 / Fold change vs veh, ARFIP1 / RFU, FAM179B / Fold change vs veh, FAM179B / RFU, BCL10 / Fold change vs veh, BCL10 / RFU, UHRF1BP1L / Fold change vs veh, UHRF1BP1L / RFU, BET1 / Fold change vs veh, BET1 / RFU, CNOT2 / Fold change vs veh, CNOT2 / RFU, ZNF268 / Fold change vs veh, ZNF268 / Fold change vs veh, ZNF507 / RFU, DGCR2 / Fold change vs veh, DGCR2 / RFU, WDSUB1 / Fold change vs veh, WDSUB1 / Fold change vs veh, HSP90B1 /// MIR3652 / RFU, ADSS / Fold change vs veh, ADSS / RFU, GK / Fold change vs veh, GK / RFU, ZNF148 / Fold change vs veh, ZNF148 / RFU, TAF9 / Fold change vs veh, TAF9 / RFU, SLC1A5 / Fold change vs veh, SLC1A5 / RFU, SLMO2 / Fold change vs veh, SLMO2 / RFU, ABCC4 / Fold change vs veh, ABCC4 / RFU, LOC101060439 /// RAP1B / Fold change vs veh, LOC101060439 /// RAP1B / RFU, RFX7 / Fold change vs veh, RFX7 / RFU, GTPBP10 / Fold change vs veh, GTPBP10 / RFU, CNEP1R1 / Fold change vs veh, CNEP1R1 / RFU, BIVM-ERCC5 /// ERCC5 / Fold change vs veh, BIVM-ERCC5 /// ERCC5 / RFU, ILF3 / Fold change vs veh, ILF3 / RFU 11762660_at / Fold change /veh 11762660_at / RFU VCAN (11757783_s_at) / Fold change /veh VCAN (11757783_s_at) / RFU DDX43 (11728927_at) / Fold change /veh DDX43 (11728927_at) / RFU KRT8 (11758188_x_at) / Fold change /veh KRT8 (11758188_x_at) / RFU NKD1 (11759106_at) / Fold change /veh NKD1 (11759106_at) / RFU SRD5A1 (11742802_a_at) / Fold change /veh SRD5A1 (11742802_a_at) / RFU TPSAB1 /// TPSB2 (11721975_s_at) / Fold change /veh TPSAB1 /// TPSB2 (11721975_s_at) / RFU GSTM3 (11746129_a_at) / Fold change /veh GSTM3 (11746129_a_at) / RFU IL23R (11737362_x_at) / Fold change /veh IL23R (11737362_x_at) / RFU TMEM51 (11727254_a_at) / Fold change /veh TMEM51 (11727254_a_at) / RFU PIWIL2 (11732686_x_at) / Fold change /veh PIWIL2 (11732686_x_at) / RFU ORM1 (11744905_x_at) / Fold change /veh ORM1 (11744905_x_at) / RFU CCDC152 (11743942_at) / Fold change /veh CCDC152 (11743942_at) / RFU ECM1 (11717891_a_at) / Fold change /veh ECM1 (11717891_a_at) / RFU IL23R (11748794_a_at) / Fold change /veh IL23R (11748794_a_at) / RFU TNFAIP8L3 (11732012_x_at) / Fold change /veh TNFAIP8L3 (11732012_x_at) / RFU MBOAT4 (11741988_at) / Fold change /veh MBOAT4 (11741988_at) / RFU 11764193_at / Fold change /veh 11764193_at / RFU TMEM53 (11763286_at) / Fold change /veh TMEM53 (11763286_at) / RFU MAGEB2 (11727129_at) / Fold change /veh MAGEB2 (11727129_at) / RFU TMEM200A (11744735_a_at) / Fold change /veh TMEM200A (11744735_a_at) / RFU CCDC152 (11751479_a_at) / Fold change /veh CCDC152 (11751479_a_at) / RFU FAM211A (11726209_a_at) / Fold change /veh FAM211A (11726209_a_at) / RFU RGS16 (11746705_a_at) / Fold change /veh RGS16 (11746705_a_at) / RFU VCAN (11755009_s_at) / Fold change /veh VCAN (11755009_s_at) / RFU RHOB (11743442_s_at) / Fold change /veh RHOB (11743442_s_at) / RFU RGS16 (11720943_a_at) / Fold change /veh RGS16 (11720943_a_at) / RFU RGS16 (11720944_at) / Fold change /veh RGS16 (11720944_at) / RFU, VPS4B / Fold change vs veh, VPS4B / RFU, CREB1 / Fold change vs veh, CREB1 / RFU, DNAJC13 / Fold change vs veh, DNAJC13 / RFU, GNAQ / Fold change vs veh, GNAQ / RFU, CDK5R1 / Fold change vs veh, CDK5R1 / RFU, ZRANB3 / Fold change vs veh, ZRANB3 / RFU, CUL4A / Fold change vs veh, CUL4A / RFU, CCNY / Fold change vs veh, CCNY / RFU, UFL1 / Fold change vs veh, UFL1 / RFU, COG3 / Fold change vs veh, COG3 / RFU, DIAPH2 / Fold change vs veh, DIAPH2 / RFU, SKA2 / Fold change vs veh, SKA2 / RFU, AFF3 / Fold change vs veh, AFF3 / RFU, LMF1 / Fold change vs veh, LMF1 / RFU, IPO11 / Fold change vs veh, IPO11 / RFU, DFFB / Fold change vs veh, DFFB / RFU, FOXP1 / Fold change vs veh, FOXP1 / RFU, CARD8 / Fold change vs veh, CARD8 / RFU, STRN3 / Fold change vs veh, STRN3 / RFU, ADK / Fold change vs veh, ADK / RFU, RASSF2 / Fold change vs veh, RASSF2 / RFU, WIPF1 / Fold change vs veh, WIPF1 / RFU, LARP1B / Fold change vs veh, LARP1B / RFU, RASA1 / Fold change vs veh, RASA1 / RFU, RB1 / Fold change vs veh, RB1 / RFU, PPFIA1 / Fold change vs veh, PPFIA1 / RFU, MAT2A / Fold change vs veh, MAT2A / RFU, CCT5 / Fold change vs veh, CCT5 / RFU, WDR92 / Fold change vs veh, WDR92 / RFU, CUX1 / Fold change vs veh, CUX1 / RFU, TTC7A / Fold change vs veh, TTC7A / RFU, TMEM135 / Fold change vs veh, TMEM135 / RFU, DEPTOR / Fold change vs veh, DEPTOR / RFU, CPM / Fold change vs veh, CPM / RFU, DNAJB6 / Fold change vs veh, DNAJB6 / RFU, CACNA2D3 / Fold change vs veh, CACNA2D3 / RFU, DTX4 / Fold change vs veh, DTX4 / RFU, TFCP2 / Fold change vs veh, TFCP2 / RFU, GMCL1 /// GMCL1P1 / Fold change vs veh, GMCL1 /// GMCL1P1 / RFU, AEBP2 / Fold change vs veh, AEBP2 / RFU, SNHG1 /// SNORD22 /// SNORD25 /// SNORD26 /// SNORD27 /// SNORD28 /// SNORD29 /// SNORD31 / Fold change vs veh, SNHG1 /// SNORD22 /// SNORD25 /// SNORD26 /// SNORD27 /// SNORD28 /// SNORD29 /// SNORD31 / Fold change (Aza/veh), C12orf56 (ProbeSet 11735607_a_at) / Fold change (ACY-1035/veh), C12orf56 (ProbeSet 11735607_a_at) / Fold change (Aza/veh), FGFR1OP (ProbeSet 11751329_s_at) / Fold change (ACY-1035/veh), FGFR1OP (ProbeSet 11751329_s_at) / Fold change (Aza/veh), VPS36 (ProbeSet 11739960_a_at) / Fold change (ACY-1035/veh), VPS36 (ProbeSet 11739960_a_at) / RFU SYPL1 (11715823_x_at) / Fold change /veh SYPL1 (11715823_x_at) / RFU IGFBP7 (11715501_s_at) / Fold change /veh IGFBP7 (11715501_s_at) / RFU REEP3 (11722064_at) / Fold change /veh REEP3 (11722064_at) / RFU IGLL1 (11728026_x_at) / Fold change /veh IGLL1 (11728026_x_at): dose or concentration left out as unconfirmed
Details: ProbeSet 11723944_a_at; LIST B

Structure (SMILES): Nc1ccc(-c2cccs2)cc1NC(=O)c1ccc2c(c1)cc(C1CC1)n2CCN1CCOCC1 [ACY-1035]
- Fold change vs veh, PTTG1IP: 0.91
